Laboratory results: ChEMBL document CHEMBL3616373, “Identification of N-sulfonyl-tetrahydroquinolines as RORc inverse agonists” (Bioorg Med Chem Lett, 2015)

Experiments:
[1] = biological target: T1, Nuclear receptor ROR-gamma (Homo sapiens, UniProt P51449); experiment: Inverse agonist activity at N-terminal 6xHis-tagged human RORc ligand binding domain (241 to 486) expressed in bacterial expression system assessed as inhibition of SRC1 co-activator peptide recruitment after 3 hrs by TR-FRET analysis; type: functional
T1 sequence (P51449 whole entry): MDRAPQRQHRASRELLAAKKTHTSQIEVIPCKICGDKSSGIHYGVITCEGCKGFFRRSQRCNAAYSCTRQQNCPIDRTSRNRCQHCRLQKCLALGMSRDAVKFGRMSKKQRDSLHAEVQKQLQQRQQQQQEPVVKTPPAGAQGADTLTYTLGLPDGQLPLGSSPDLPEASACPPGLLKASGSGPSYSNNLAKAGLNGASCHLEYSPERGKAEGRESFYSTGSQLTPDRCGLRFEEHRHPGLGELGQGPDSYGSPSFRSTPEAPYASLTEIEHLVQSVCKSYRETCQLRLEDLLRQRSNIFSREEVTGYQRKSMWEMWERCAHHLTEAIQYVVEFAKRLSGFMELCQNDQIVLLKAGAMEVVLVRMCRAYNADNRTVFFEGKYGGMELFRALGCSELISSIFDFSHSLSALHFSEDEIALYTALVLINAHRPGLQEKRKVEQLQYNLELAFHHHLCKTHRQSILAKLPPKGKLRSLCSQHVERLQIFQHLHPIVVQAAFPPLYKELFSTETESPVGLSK

[2] = biological target: T2, Nuclear receptor ROR-gamma (Homo sapiens) (UniProt P51449); experiment: Inverse agonist activity at N-terminal 6xHis-tagged human RORc ligand binding domain (241 to 486) expressed in bacterial expression system assessed as inhibition of SRC1 co-activator peptide recruitment after 3 hrs by TR-FRET analysis relative to apo-RORc ligand binding domain
T2 sequence (whole entry): T1 sequence (P51449 whole entry)

[3] = biological target: T1, Nuclear receptor ROR-gamma; experiment: Displacement of [3H2]-25-hydroxycholesterol from N-terminal 6xHis-tagged human RORc ligand binding domain (241 to 486) expressed in bacterial expression system after 3 hrs by scintillation counting analysis

SMILES | EC50 [1] | Efficacy [2] | IC50 [3]
O=C(Nc1ccc2c(c1)N(S(=O)(=O)c1ccc(F)cc1)CCC2)c1ccc(F)cc1 | 1.7 µM | -75% | 
CC(=O)Nc1ccc2c(c1)N(S(=O)(=O)c1ccc(F)cc1)CCC2 | > 10 µM |  | 
O=C(Nc1ccc2c(c1)N(S(=O)(=O)c1ccc(F)cc1)CCC2)c1ccncc1 | 6.8 µM | -58% | 
O=C(Nc1ccc2c(c1)N(S(=O)(=O)c1ccc(F)cc1)CCC2)c1cccc(F)c1 | 0.47 µM | -69% | 
Cc1ccccc1C(=O)Nc1ccc2c(c1)N(S(=O)(=O)c1ccc(F)cc1)CCC2 | 0.12 µM | -80% | 
O=C(Nc1ccc2c(c1)N(S(=O)(=O)c1ccc(F)cc1)CCC2)c1ccno1 | 7.4 µM | -54% | 
O=C(Nc1ccc2c(c1)CCCCN2S(=O)(=O)c1ccc(F)cc1)c1c(F)cccc1F | > 10 µM |  | 
O=C(Nc1ccc2c(c1)N(S(=O)(=O)c1ccc(F)cc1)CCC2)c1cnccn1 | > 10 µM |  | 
O=S(=O)(Nc1ccc2c(c1)N(S(=O)(=O)c1ccc(F)cc1)CCC2)c1ccccc1 | 0.57 µM | -77% | 
O=C(Nc1ccc2c(c1)N(S(=O)(=O)c1ccc(F)cc1)CCC2)c1ccccc1 | 0.55 µM | -89% | 
O=C(Nc1ccc2c(c1)N(S(=O)(=O)c1ccc(F)cc1)CCC2)C1CC1 | 3.6 µM | -63% | 
O=C(Nc1ccc2c(c1)CCN2S(=O)(=O)c1ccc(F)cc1)c1c(F)cccc1F | > 10 µM |  | 

Second part, the compound after the results:

EC50 [1] | Efficacy [2] | IC50 [3] | SMILES
0.42 µM | -81% |  | O=C(Nc1ccc2c(c1)N(S(=O)(=O)c1ccc(F)cc1)CCC2)c1ccccc1F
2.1 µM | -77% | 1.1 µM | O=C(Nc1ccc2c(c1)N(S(=O)(=O)c1cccs1)CCC2)c1c(F)cccc1F
0.15 µM | -95% | 0.11 µM | Cc1ccc(S(=O)(=O)N2CCCc3ccc(NC(=O)c4c(F)cccc4F)cc32)cc1
> 10 µM |  |  | O=C(Nc1ccc2c(c1)N(C(=O)c1ccccc1)CCC2)c1c(F)cccc1F
> 10 µM |  |  | CS(=O)(=O)N1CCCc2ccc(NC(=O)c3c(F)cccc3F)cc21
0.23 µM | -91% | 0.18 µM | O=C(Nc1ccc2c(c1)N(S(=O)(=O)c1ccccc1)CCC2)c1c(F)cccc1F
0.23 µM | -96% |  | O=C(Nc1ccc2c(c1)N(S(=O)(=O)c1ccc(F)cc1)CCCC2)c1c(F)cccc1F
> 10 µM |  |  | O=C(Nc1ccc2c(c1)CCCN2S(=O)(=O)c1ccc(F)cc1)c1c(F)cccc1F
